Test results as given in patent US10357493B2, “Metalloenzyme inhibitor compounds” (Selenity Therapeutics (Bermuda), Ltd., priority 2017, dated 2019).

Legend:
HDAC6 = HDAC6 (Homo sapiens (Human), UniProt Q9UBN7); assay: HDAC6 enzymatic assay; assay type: biochemical; settings: read-out: Human HDAC6 IC50
Method in brief: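 Human HDAC6 activity was measured in duplicate 50 μl reactions holding 2 ng HDAC6, 10 uM of HDAC substrate and test compound in HDAC assay buffer (50 mM Tris-HCl, pH 7.4, 137 mM NaCl, 2.7 mM KCl, 0.05% Tween 20, 5 μg BSA) with 1% DMSO, for 17 hours at room temperature. HDAC Developer was added for 20 minutes before reading fluorescence at 360/460 nm.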

HDAC1 = HDAC1 (Homo sapiens (Human), UniProt Q13547); assay: HDAC1 enzymatic assay; assay type: biochemical; settings: read-out: Human HDAC1 IC50
Chain of HDAC1 (Q13547 whole entry): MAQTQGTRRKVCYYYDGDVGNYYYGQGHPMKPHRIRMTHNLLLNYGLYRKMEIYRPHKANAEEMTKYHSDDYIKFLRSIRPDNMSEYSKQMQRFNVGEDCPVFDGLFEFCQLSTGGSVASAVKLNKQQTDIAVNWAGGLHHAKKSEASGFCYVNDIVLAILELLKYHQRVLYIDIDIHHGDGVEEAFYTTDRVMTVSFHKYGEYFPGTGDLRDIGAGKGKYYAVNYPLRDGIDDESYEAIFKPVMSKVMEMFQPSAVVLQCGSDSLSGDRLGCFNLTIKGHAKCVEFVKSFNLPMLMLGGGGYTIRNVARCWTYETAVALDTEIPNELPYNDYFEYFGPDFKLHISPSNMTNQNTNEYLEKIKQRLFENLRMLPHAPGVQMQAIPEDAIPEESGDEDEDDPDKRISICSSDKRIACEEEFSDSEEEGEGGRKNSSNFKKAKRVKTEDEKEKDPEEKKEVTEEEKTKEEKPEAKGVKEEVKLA
Method in brief: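 HDAC1 activity was measured in duplicate 50 μl reactions containing 0.5 ng HDAC1, 10 uM of HDAC substrate, and test compound in buffer (50 mM Tris-HCl, pH 7.4, 137 mM NaCl, 2.7 mM KCl, 0.05% Tween 20, 5 μg BSA) with 1% DMSO, incubated 17 hours at room temperature. HDAC Developer was then added for 20 minutes and fluorescence read at 360/460 nm.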

[1] = Mouse Pharmacokinetics, oral single dose; assay type: in vivo, male Swiss Albino mice; settings: male, Swiss Albino, plasma, 5 mg/kg, formulation by footnote: a 20% CremEL in H20, b 1% CMC in water, c 2% DMSO, 0.2% Tween80, 97.8% of 1% CMC
Protocol: Example 187: Mouse Pharmacokinetics
A dose of 5 mg/kg in an appropriate formulation was administered by oral gavage to fasted male Swiss Albino mice (n=3), and the plasma was collected at 0, 0.25, 0.5, 1, 2, 4, 8, and 24 h. Plasma levels were measured by HPLC/MS/MS methods and the pharmacokinetic parameters were determined for individual animals from plasma concentration-time data using noncompartmental model 200-202 in Phoenix WinNonlin 6.3.

Chain of HDAC6 (Q9UBN7 whole entry): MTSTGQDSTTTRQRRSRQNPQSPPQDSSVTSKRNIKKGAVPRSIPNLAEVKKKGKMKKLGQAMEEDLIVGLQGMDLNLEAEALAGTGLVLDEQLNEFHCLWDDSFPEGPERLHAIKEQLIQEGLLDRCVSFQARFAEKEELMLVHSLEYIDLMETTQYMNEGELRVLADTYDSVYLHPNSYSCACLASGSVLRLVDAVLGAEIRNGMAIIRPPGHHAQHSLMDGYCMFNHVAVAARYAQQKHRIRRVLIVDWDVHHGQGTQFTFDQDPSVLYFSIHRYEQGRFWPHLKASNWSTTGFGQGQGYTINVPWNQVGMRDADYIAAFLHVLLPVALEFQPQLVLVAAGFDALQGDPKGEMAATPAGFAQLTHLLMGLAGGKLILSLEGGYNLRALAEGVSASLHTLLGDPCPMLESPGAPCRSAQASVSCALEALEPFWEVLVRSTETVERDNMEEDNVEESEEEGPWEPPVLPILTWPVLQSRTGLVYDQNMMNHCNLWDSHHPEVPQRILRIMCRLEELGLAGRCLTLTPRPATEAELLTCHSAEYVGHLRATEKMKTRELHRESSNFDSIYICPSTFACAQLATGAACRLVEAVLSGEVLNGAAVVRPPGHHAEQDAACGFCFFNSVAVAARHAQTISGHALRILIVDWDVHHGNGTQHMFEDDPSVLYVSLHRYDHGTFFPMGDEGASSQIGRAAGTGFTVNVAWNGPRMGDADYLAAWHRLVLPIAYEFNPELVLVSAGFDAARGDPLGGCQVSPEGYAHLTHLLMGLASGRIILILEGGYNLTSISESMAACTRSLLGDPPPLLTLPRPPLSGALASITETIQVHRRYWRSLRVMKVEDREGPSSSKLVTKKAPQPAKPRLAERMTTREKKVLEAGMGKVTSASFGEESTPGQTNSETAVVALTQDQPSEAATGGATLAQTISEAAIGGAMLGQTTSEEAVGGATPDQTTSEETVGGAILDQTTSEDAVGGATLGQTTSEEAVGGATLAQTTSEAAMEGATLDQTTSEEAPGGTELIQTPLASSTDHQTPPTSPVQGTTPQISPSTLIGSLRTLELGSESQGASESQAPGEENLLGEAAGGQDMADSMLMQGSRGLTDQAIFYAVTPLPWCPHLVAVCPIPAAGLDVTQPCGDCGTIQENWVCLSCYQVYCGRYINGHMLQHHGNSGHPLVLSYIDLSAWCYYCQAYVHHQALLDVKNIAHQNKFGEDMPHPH

CS(=O)(=O)NCC(Nc1ncc(-c2nnc(C(F)F)o2)cn1)c1ccc(F)c(F)c1 (single isomer, unassigned) [171(+), N-(2-((5-(5-(difluoromethyl)-1,3,4-oxadiazol-2-yl)pyrimidin-2-yl)amino)-2-(3,4-difluorophenyl)ethyl)methanesulfonamide]
IC50 (HDAC6): 0.23 µM
IC50 (HDAC1): > 30 µM
Cmax [1]: 2.59 µg/mL
half-life [1]: 3.3 h

CC(C)S(=O)(=O)NCC(Nc1ncc(-c2nnc(C(F)F)o2)cn1)c1ccc(F)cc1 (stereo not drawn) [Example 109, N-(2-((5-(5-(difluoromethyl)-1,3,4-oxadiazol-2-yl)pyrimidin-2-yl)amino)-2-(4-fluorophenyl)ethyl)propane-2-sulfonamide]
IC50 (HDAC6): 0.037 µM
IC50 (HDAC1): > 30 µM
Cmax [1]: 0.678 µg/mL
half-life [1]: 3.4 h

O=S(=O)(NCC(Nc1ncc(-c2nnc(C(F)F)o2)cn1)c1ccc(OC(F)F)cc1F)C1CC1 (stereo not drawn) [150(+), N-(2-(4-(difluoromethoxy)-2-fluorophenyl)-2-((5-(5-(difluoromethyl)-1,3,4-oxadiazol-2-yl)pyrimidin-2-yl)amino)ethyl)cyclopropanesulfonamide]
IC50 (HDAC6): 0.023 µM
IC50 (HDAC1): > 30 µM
Cmax [1]: 3.39 µg/mL
half-life [1]: 9.3 h

CS(=O)(=O)NCC(Nc1ncc(-c2nnc(C(F)F)o2)cn1)c1ccc(OC(F)F)cc1F (single isomer, unassigned) [116(+), N-(2-(4-(difluoromethoxy)-2-fluorophenyl)-2-((5-(5-(difluoromethyl)-1,3,4-oxadiazol-2-yl)pyrimidin-2-yl)amino)ethyl)methanesulfonamide]
IC50 (HDAC6): 0.017 µM
IC50 (HDAC1): > 30 µM
Cmax [1]: 1.01 µg/mL
half-life [1]: 4.5 h

O=C(CCCCCCNC(=O)c1cnc(N(c2ccccc2)c2ccccc2)nc1)NO [Ricolinostat, ricolinostat, reference compound]
Cmax [1]: 0.047 µg/mL
half-life [1]: 2.7 h

CCS(=O)(=O)NCC(Nc1ncc(-c2nnc(C(F)F)o2)cn1)c1ccc(F)cc1 (stereo not drawn) [Example 108, N-(2-((5-(5-(difluoromethyl)-1,3,4-oxadiazol-2-yl)pyrimidin-2-yl)amino)-2-(4-fluorophenyl)ethyl)ethanesulfonamide]
IC50 (HDAC6): 0.027 µM
IC50 (HDAC1): > 30 µM
Cmax [1]: 2.12 µg/mL
half-life [1]: 2.3 h

CS(=O)(=O)NCC(Nc1ncc(-c2nnc(C(F)F)o2)cn1)c1ccc(Cl)cc1 (single isomer, unassigned) [173(+), N-(2-(4-chlorophenyl)-2-((5-(5-(difluoromethyl)-1,3,4-oxadiazol-2-yl)pyrimidin-2-yl)amino)ethyl)methanesulfonamide]
IC50 (HDAC6): 0.024 µM
IC50 (HDAC1): > 30 µM
Cmax [1]: 2.82 µg/mL
half-life [1]: 5.6 h

CS(=O)(=O)NCC(Nc1ncc(-c2nnc(C(F)F)o2)cn1)c1ccc(F)cc1F (single isomer, unassigned) [103(+), N-(2-((5-(5-(difluoromethyl)-1,3,4-oxadiazol-2-yl)pyrimidin-2-yl)amino)-2-(2,4-difluorophenyl)ethyl)methanesulfonamide]
IC50 (HDAC6): 0.016 µM
IC50 (HDAC1): > 30 µM
Cmax [1]: 2.37 µg/mL
half-life [1]: 3.2 h

CN(CC(Nc1ncc(-c2nnc(C(F)F)o2)cn1)c1ccc(F)cc1)S(C)(=O)=O (single isomer, unassigned) [113(+), N-(2-((5-(5-(difluoromethyl)-1,3,4-oxadiazol-2-yl)pyrimidin-2-yl)amino)-2-(4-fluorophenyl)ethyl)-N-methylmethanesulfonamide]
Cmax [1]: 1.36 µg/mL
half-life [1]: 3.5 h

O=S(=O)(NCC(Nc1ncc(-c2nnc(C(F)F)o2)cn1)c1ccc(F)cc1F)C1CC1 (stereo not drawn) [142(+), N-(2-((5-(5-(difluoromethyl)-1,3,4-oxadiazol-2-yl)pyrimidin-2-yl)amino)-2-(2,4-difluorophenyl)ethyl)cyclopropanesulfonamide]
IC50 (HDAC6): 0.035 µM
IC50 (HDAC1): > 30 µM
Cmax [1]: 2.53 µg/mL
half-life [1]: 4.1 h

Fc1cccc(C2(Nc3ncc(-c4nnc(C(F)F)o4)cn3)CC2)c1 [Example 57, 5-(5-(difluoromethyl)-1,3,4-oxadiazol-2-yl)-N-(1-(3-fluorophenyl)cyclopropyl)pyrimidin-2-amine]
IC50 (HDAC6): 0.015 µM
IC50 (HDAC1): > 100 µM

FC(F)Oc1ccc(C2(Nc3ncc(-c4nnc(C(F)F)o4)cn3)CC2)cc1 [Example 32, N-(1-(4-(difluoromethoxy)phenyl)cyclopropyl)-5-(5-(difluoromethyl)-1,3,4-oxadiazol-2-yl)pyrimidin-2-amine]
IC50 (HDAC6): 0.059 µM
IC50 (HDAC1): > 30 µM

O=S(=O)(C1CC1)N(CC(Nc1ncc(-c2nnc(C(F)F)o2)cn1)c1ccc(F)cc1)CC(F)(F)F (single isomer, unassigned) [165(+), N-(2-((5-(5-(difluoromethyl)-1,3,4-oxadiazol-2-yl)pyrimidin-2-yl)amino)-2-(4-fluorophenyl)ethyl)-N-(2,2,2-trifluoroethyl)cyclopropanesulfonamide]
IC50 (HDAC6): 0.11 µM
IC50 (HDAC1): > 30 µM

CCS(=O)(=O)N(C)CC(Nc1ncc(-c2nnc(C(F)F)o2)cn1)c1ccc(OC(F)(F)F)cc1 (stereo not drawn) [156(+), N-(2-((5-(5-(difluoromethyl)-1,3,4-oxadiazol-2-yl)pyrimidin-2-yl)amino)-2-(4-(trifluoromethoxy)phenyl)ethyl)-N-methylethanesulfonamide]
IC50 (HDAC6): 0.076 µM
IC50 (HDAC1): > 30 µM

Fc1cc(Cl)ccc1C1(Nc2ncc(-c3nnc(C(F)F)o3)cn2)CC1 [Example 66]
IC50 (HDAC6): 0.042 µM
IC50 (HDAC1): > 30 µM

Fc1ccc(C2(Nc3ncc(-c4nnc(C(F)F)o4)cn3)CC2)nc1 [Example 67, 5-(5-(difluoromethyl)-1,3,4-oxadiazol-2-yl)-N-(1-(5-fluoropyridin-2-yl)cyclopropyl) pyrimidin-2-amine]
IC50 (HDAC6): 0.19 µM
IC50 (HDAC1): > 30 µM

COc1ccccc1C1(Nc2ncc(-c3nnc(C(F)(F)F)o3)cn2)CC1 [Example 40, N-(1-(2-methoxyphenyl)cyclopropyl)-5-(5-(trifluoromethyl)-1,3,4-oxadiazol-2-yl)pyrimidin-2-amine]
IC50 (HDAC6): 0.22 µM
IC50 (HDAC1): > 30 µM

O=C(C1CC1)N(CC(Nc1ncc(-c2nnc(C(F)F)o2)cn1)c1ccc(F)cc1)CC(F)(F)F (single isomer, unassigned) [170(−), N-(2-((5-(5-(difluoromethyl)-1,3,4-oxadiazol-2-yl)pyrimidin-2-yl)amino)-2-(4-fluorophenyl)ethyl)-N-(2,2,2-trifluoroethyl)cyclopropanecarboxamide]
IC50 (HDAC6): 1 µM
IC50 (HDAC1): > 30 µM

CC(C)(Nc1ncc(-c2nnc(C(F)F)o2)cn1)c1ccc(F)cc1F [Example 97, 5-(5-(difluoromethyl)-1,3,4-oxadiazol-2-yl)-N-(2-(2,4-difluorophenyl)propan-2-yl)pyrimidin-2-amine]
IC50 (HDAC6): 0.034 µM
IC50 (HDAC1): > 30 µM

CCS(=O)(=O)N(C)CC(Nc1ncc(-c2nnc(C(F)F)o2)cn1)c1ccc(OC(F)F)cc1F (stereo not drawn) [148(+), N-(2-(4-(difluoromethoxy)-2-fluorophenyl)-2-((5-(5-(difluoromethyl)-1,3,4-oxadiazol-2-yl)pyrimidin-2-yl)amino)ethyl)-N-methylethanesulfonamide]
IC50 (HDAC6): 0.019 µM
IC50 (HDAC1): > 30 µM

FC(F)Oc1cccc(C2(Nc3ncc(-c4nnc(C(F)F)o4)cn3)CC2)c1Cl [Example 86, N-(1-(2-chloro-3-(difluoromethoxy)phenyl)cyclopropyl)-5-(5-(difluoromethyl)-1,3,4-oxadiazol-2-yl)pyrimidin-2-amine]
IC50 (HDAC6): 0.028 µM
IC50 (HDAC1): > 30 µM

Cc1cccc(C2(Nc3ncc(-c4nnc(C(F)F)o4)cn3)CC2)c1Cl [Example 77, N-(1-(2-chloro-3-methylphenyl)cyclopropyl)-5-(5-(difluoromethyl)-1,3,4-oxadiazol-2-yl)pyrimidin-2-amine]
IC50 (HDAC6): 0.028 µM
IC50 (HDAC1): > 30 µM
